Measured values as given in patent US9695155B2, “Herbicidal substituted pyrimidinyloxy benzene compounds” (E. I. DU PONT DE NEMOURS AND COMPANY, priority 2013, dated 2017).

Key:
corn = assay: Test C postemergence; assay type: in vivo, Zea mays; details: for Corn plant response rating: 16 g ai/ha, visual rating; for Corn plant response rating / Plant response rating (0 to 100), Corn: postemergence; for Corn plant response rating / Plant response rating, Corn: scale 0 to 100 (0 no effect, 100 complete control); for Plant response rating (0 to 100), Corn: 125 g ai/ha; for Plant response rating, Corn: Postemergence
Summary of the method: (§1)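 Visual injury score versus untreated controls, 0 = no effect, 100 = complete control, taken 13 to 15 days after treatment in the greenhouse. Pre-emergence pots held loam/sand; post-emergence plants grew in sphagnum peat/vermiculite mix and were sprayed at the 1- to 4-leaf stage.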

barnyardgrass [1] = assay: Test C postemergence; assay type: in vivo, Echinochloa crus-galli; details: for Barnyardgrass plant response rating: 16 g ai/ha, visual rating; for Barnyardgrass plant response rating / Plant response rating (0 to 100), Barnyardgrass: postemergence; for Barnyardgrass plant response rating / Plant response rating, Barnyardgrass: scale 0 to 100 (0 no effect, 100 complete control); for Plant response rating (0 to 100), Barnyardgrass: 125 g ai/ha; for Plant response rating, Barnyardgrass: Postemergence
Summary of the method: as §1

pigweed [2] = assay: Test C preemergence; assay type: in vivo, Amaranthus retroflexus; details: for Pigweed plant response rating: preemergence; for Plant response rating, Pigweed: Preemergence, 31 g ai/ha, scale 0 to 100, 0 no effect, 100 complete control
Summary of the method: as §1

giant foxtail [3] = assay: Test A preemergence; assay type: in vivo, Setaria faberii; details: for Plant response rating, Foxtail, Giant: 125 g ai/ha, 0 to 100 scale where 0 is no effect and 100 is complete control; for Foxtail, Giant plant response rating: 500 g ai/ha, 0 to 100 scale, 0 no effect, 100 complete control, approx. 10 days
Summary of the method: (§2)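 Greenhouse pot test, loam/sand soil. Formulation: non-phytotoxic solvent mix plus surfactant. Pre: directed spray onto soil after sowing. Post: plants at 1–2 leaf, 2–10 cm. Rated visually vs untreated controls at ~10 d, 0 (no effect) to 100 (complete control).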

Italian ryegrass = assay: Test C postemergence; assay type: in vivo, Lolium multiflorum; details: for Plant response rating (0 to 100), Ryegrass, Italian: 125 g ai/ha, postemergence; for Plant response rating, Ryegrass, Italian: Postemergence, scale 0 to 100 (0 no effect, 100 complete control)
Summary of the method: as §1

pigweed [4] = assay: Test A preemergence; assay type: in vivo, Amaranthus retroflexus; details: for Plant response rating, Pigweed: 125 g ai/ha, 0 to 100 scale where 0 is no effect and 100 is complete control; for Pigweed plant response rating: 500 g ai/ha, 0 to 100 scale, 0 no effect, 100 complete control, approx. 10 days
Summary of the method: as §2

barnyardgrass [5] = assay: Test C preemergence; assay type: in vivo, Echinochloa crus-galli; details: for Barnyardgrass plant response rating: preemergence; for Plant response rating, Barnyardgrass: Preemergence, 31 g ai/ha, scale 0 to 100, 0 no effect, 100 complete control
Summary of the method: as §1

giant foxtail [6] = assay: Test C preemergence; assay type: in vivo, Setaria faberii; details: for Foxtail, Giant plant response rating: preemergence; for Plant response rating, Foxtail, Giant: Preemergence, 31 g ai/ha, scale 0 to 100, 0 no effect, 100 complete control
Summary of the method: as §1

rice = assay: Test B flooded paddy test; assay type: in vivo, Oryza sativa; details: Flood, 250 g ai/ha; 0 to 100 scale where 0 is no effect and 100 is complete control
Summary of the method: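 2-leaf stage plants; pots flooded to 3 cm, compound added to paddy water, depth maintained. Greenhouse 13–15 d. Visual rating vs untreated controls, 0 (no effect) to 100 (complete control); dash = no result.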

yellow nutsedge [7] = assay: Test C preemergence; assay type: in vivo, Cyperus esculentus; details: for Nutsedge, Yellow plant response rating: preemergence; for Plant response rating, Nutsedge, Yellow: Preemergence, 31 g ai/ha, scale 0 to 100, 0 no effect, 100 complete control
Summary of the method: as §1

kochia = assay: Test C postemergence; assay type: in vivo, Kochia scoparia; details: for Kochia plant response rating: 16 g ai/ha, visual rating; for Kochia plant response rating / Plant response rating (0 to 100), Kochia: postemergence; for Kochia plant response rating / Plant response rating, Kochia: scale 0 to 100 (0 no effect, 100 complete control); for Plant response rating (0 to 100), Kochia: 125 g ai/ha; for Plant response rating, Kochia: Postemergence
Summary of the method: as §1

yellow nutsedge [8] = assay: Test C postemergence; assay type: in vivo, Cyperus esculentus; details: for Plant response rating (0 to 100), Nutsedge, Yellow: 125 g ai/ha, postemergence; for Plant response rating, Nutsedge, Yellow: Postemergence, scale 0 to 100 (0 no effect, 100 complete control)
Summary of the method: as §1

galium = assay: Test C postemergence; assay type: in vivo, Galium aparine; details: for Galium plant response rating: 16 g ai/ha, visual rating; for Galium plant response rating / Plant response rating (0 to 100), Galium: postemergence; for Galium plant response rating / Plant response rating, Galium: scale 0 to 100 (0 no effect, 100 complete control); for Plant response rating (0 to 100), Galium: 125 g ai/ha; for Plant response rating, Galium: Postemergence
Summary of the method: as §1

wheat, winter = assay: Test C postemergence; assay type: in vivo, Triticum aestivum; details: for Plant response rating (0 to 100), Wheat: 125 g ai/ha, postemergence; for Plant response rating, Wheat: Postemergence, scale 0 to 100 (0 no effect, 100 complete control)
Summary of the method: as §1

[9] = 16 g ai/ha, scale 0 to 100 (0 no effect, 100 complete control)
[10] = 62 g ai/ha, scale 0 (no effect) to 100 (complete control)
[11] = 125 g ai/ha, scale 0 (no effect) to 100 (complete control)

## N#Cc1cccc(Oc2ncc(Br)cn2)c1-n1cc(I)cn1 [Compound 88]
corn; 13 to 15 days
  Corn plant response rating: 5
corn
  Plant response rating (0 to 100), Corn: 10
corn; 31 g ai/ha, 13 to 15 days
  Plant response rating, Corn: 10
corn; 62 g ai/ha
  Plant response rating, Corn: 10
Barnyardgrass [1]; 13 to 15 days
  Barnyardgrass plant response rating: 5
Barnyardgrass [1]
  Plant response rating (0 to 100), Barnyardgrass: 10
Barnyardgrass [1]; 31 g ai/ha, 13 to 15 days
  Plant response rating, Barnyardgrass: 5
Barnyardgrass [1]; 62 g ai/ha
  Plant response rating, Barnyardgrass: 5
Pigweed [2]; [9]
  Pigweed plant response rating: 100
Pigweed [2]; [10]
  Pigweed plant response rating: 100
Pigweed [2]; [11]
  Pigweed plant response rating: 100
Pigweed [2]
  Plant response rating, Pigweed: 100
Giant foxtail [3]
  Plant response rating, Foxtail, Giant: 100
  Foxtail, Giant plant response rating: 100
Italian ryegrass
  Plant response rating (0 to 100), Ryegrass, Italian: 0
Italian ryegrass; 31 g ai/ha, 13 to 15 days
  Plant response rating, Ryegrass, Italian: 5
Italian ryegrass; 62 g ai/ha
  Plant response rating, Ryegrass, Italian: 10
Pigweed [4]
  Plant response rating, Pigweed: 100
  Pigweed plant response rating: 100
Barnyardgrass [5]; [9]
  Barnyardgrass plant response rating: 5
Barnyardgrass [5]; [10]
  Barnyardgrass plant response rating: 35
Barnyardgrass [5]; [11]
  Barnyardgrass plant response rating: 95
Barnyardgrass [5]
  Plant response rating, Barnyardgrass: 5
Giant foxtail [6]; [9]
  Foxtail, Giant plant response rating: 5
Giant foxtail [6]; [10]
  Foxtail, Giant plant response rating: 98
Giant foxtail [6]; [11]
  Foxtail, Giant plant response rating: 100
Giant foxtail [6]
  Plant response rating, Foxtail, Giant: 65
rice
  Plant response rating, Rice: 0
Yellow nutsedge [7]; [9]
  Nutsedge, Yellow plant response rating: 0
Yellow nutsedge [7]; [10]
  Nutsedge, Yellow plant response rating: 5
Yellow nutsedge [7]; [11]
  Nutsedge, Yellow plant response rating: 5
Yellow nutsedge [7]
  Plant response rating, Nutsedge, Yellow: 0
kochia; 13 to 15 days
  Kochia plant response rating: 90
kochia
  Plant response rating (0 to 100), Kochia: 100
kochia; 31 g ai/ha, 13 to 15 days
  Plant response rating, Kochia: 95
kochia; 62 g ai/ha
  Plant response rating, Kochia: 95
Yellow nutsedge [8]
  Plant response rating (0 to 100), Nutsedge, Yellow: 10
Yellow nutsedge [8]; 31 g ai/ha, 13 to 15 days
  Plant response rating, Nutsedge, Yellow: 5
Yellow nutsedge [8]; 62 g ai/ha
  Plant response rating, Nutsedge, Yellow: 10
galium; 13 to 15 days
  Galium plant response rating: 70
galium
  Plant response rating (0 to 100), Galium: 95
galium; 31 g ai/ha, 13 to 15 days
  Plant response rating, Galium: 80
galium; 62 g ai/ha
  Plant response rating, Galium: 70
wheat, winter
  Plant response rating (0 to 100), Wheat: 5
wheat, winter; 31 g ai/ha, 13 to 15 days
  Plant response rating, Wheat: 5
wheat, winter; 62 g ai/ha
  Plant response rating, Wheat: 5

## CCOc1cnn(-c2c(C#N)cccc2Oc2ncc(F)cn2)c1 [Compound 89]
corn; 13 to 15 days
  Corn plant response rating: 5
corn
  Plant response rating (0 to 100), Corn: 5
corn; 31 g ai/ha, 13 to 15 days
  Plant response rating, Corn: 5
corn; 62 g ai/ha
  Plant response rating, Corn: 5
Barnyardgrass [1]; 13 to 15 days
  Barnyardgrass plant response rating: 0
Barnyardgrass [1]
  Plant response rating (0 to 100), Barnyardgrass: 5
Barnyardgrass [1]; 31 g ai/ha, 13 to 15 days
  Plant response rating, Barnyardgrass: 5
Barnyardgrass [1]; 62 g ai/ha
  Plant response rating, Barnyardgrass: 5
Pigweed [2]; [9]
  Pigweed plant response rating: 55
Pigweed [2]; [10]
  Pigweed plant response rating: 100
Pigweed [2]; [11]
  Pigweed plant response rating: 100
Pigweed [2]
  Plant response rating, Pigweed: 90
Giant foxtail [3]
  Plant response rating, Foxtail, Giant: 90
  Foxtail, Giant plant response rating: 90
Italian ryegrass
  Plant response rating (0 to 100), Ryegrass, Italian: 5
Italian ryegrass; 31 g ai/ha, 13 to 15 days
  Plant response rating, Ryegrass, Italian: 0
Italian ryegrass; 62 g ai/ha
  Plant response rating, Ryegrass, Italian: 5
Pigweed [4]
  Plant response rating, Pigweed: 90
  Pigweed plant response rating: 100
Barnyardgrass [5]; [9]
  Barnyardgrass plant response rating: 5
Barnyardgrass [5]; [10]
  Barnyardgrass plant response rating: 70
Barnyardgrass [5]; [11]
  Barnyardgrass plant response rating: 100
Barnyardgrass [5]
  Plant response rating, Barnyardgrass: 35
Giant foxtail [6]; [9]
  Foxtail, Giant plant response rating: 5
Giant foxtail [6]; [10]
  Foxtail, Giant plant response rating: 100
Giant foxtail [6]; [11]
  Foxtail, Giant plant response rating: 100
Giant foxtail [6]
  Plant response rating, Foxtail, Giant: 35
rice
  Plant response rating, Rice: 20
Yellow nutsedge [7]; [9]
  Nutsedge, Yellow plant response rating: 0
Yellow nutsedge [7]; [10]
  Nutsedge, Yellow plant response rating: 10
Yellow nutsedge [7]; [11]
  Nutsedge, Yellow plant response rating: 70
Yellow nutsedge [7]
  Plant response rating, Nutsedge, Yellow: 5
kochia; 13 to 15 days
  Kochia plant response rating: 45
kochia
  Plant response rating (0 to 100), Kochia: 50
kochia; 31 g ai/ha, 13 to 15 days
  Plant response rating, Kochia: 50
kochia; 62 g ai/ha
  Plant response rating, Kochia: 60
Yellow nutsedge [8]
  Plant response rating (0 to 100), Nutsedge, Yellow: 5
Yellow nutsedge [8]; 31 g ai/ha, 13 to 15 days
  Plant response rating, Nutsedge, Yellow: 5
Yellow nutsedge [8]; 62 g ai/ha
  Plant response rating, Nutsedge, Yellow: 20
galium; 13 to 15 days
  Galium plant response rating: 45
galium
  Plant response rating (0 to 100), Galium: 55
galium; 31 g ai/ha, 13 to 15 days
  Plant response rating, Galium: 40
galium; 62 g ai/ha
  Plant response rating, Galium: 50
wheat, winter
  Plant response rating (0 to 100), Wheat: 5
wheat, winter; 31 g ai/ha, 13 to 15 days
  Plant response rating, Wheat: 0
wheat, winter; 62 g ai/ha
  Plant response rating, Wheat: 0
